The subject of experiment [1] is HUT78 cells. The experiment in a line: HUT cell inhibition assay (WST-1 cell viability). The format is cell-based. As to conditions: read-out: Inhibition of proliferation in HUT78 cells (IC50 nM). How it is done: (§1) Cancer cell lines (U937 and HUT) growing in log phase were harvested and seeded at 1000-2000 cells/well (100 μl final volume) into 96-well tissue culture plates. Following 24 h of growth cells were treated with Compound. Plates were then re-incubated for a further 72-98 h before a WST-1 cell viability assay was conducted according to the suppliers (Roche Applied Science) instructions.
(§2) Data were expressed as a percentage inhibition of the control, measured in the absence of inhibitor, as follows:
(§3) % inhibition=100−[(S^i/S^o)×100]
(§4) where S^i is the signal in the presence of inhibitor and S^o is the signal in the presence of DMSO.
(§5) Dose response curves were generated from 8 concentrations (top final concentration 10 μM, with 3-fold dilutions), using 6 replicates.
(§6) IC50 values were determined by non-linear regression analysis, after fitting the results to the equation for sigmoidal dose response with variable slope (% activity against log concentration of Compound), using Graphpad Prism software.
(§7) IC50 results were allocated to one of 3 ranges as follows: […]
On the technique in general: Formazan colour is commonly taken as a measure of viable cells.

The subject of experiment [2] is U937 cells. The experiment can be described thus: U937 cell inhibition assay (WST-1 cell viability). As to conditions: for times more potent in the monocytic cell line (U937) than the non-monocytic cell line (Hut78): U937 versus Hut78; for potency in the U937 cellular assay compared with the parent compound: versus parent compound A. The format is cell-based. How it is done:
as §1, §2, §3, §4, §5, §6, §7

As to `CC(C)CC(C)(NCc1ccc(CCC(=O)NO)cc1)C(=O)OC1CCCC1` (racemic) [Example 16, Cyclopentyl N-{4-[3-(hydroxyamino)-3-oxopropyl]benzyl}-2-methyl-D,L-leucinate], the IC50 in experiment [1] worked out at 0.04 nM. Further, in experiment [2], the “times more potent in the monocytic cell line (U937) than the non-monocytic cell line (Hut78)” value was 30 times and the “potency in the U937 cellular assay compared with the parent compound” value is recorded as “significantly more potent”.
On to `O=C(CCc1ccc(CNC2(C(=O)OC3CCCC3)CCCC2)cc1)NO` [Example 14, Cyclopentyl 1-({4-[3-hydroxyamino)-3-oxopropyl]benzyl}amino) cyclopentanecarboxylate], for which, in experiment [2], the “times more potent in the monocytic cell line (U937) than the non-monocytic cell line (Hut78)” value was determined as 30 times and the “potency in the U937 cellular assay compared with the parent compound” value was “significantly more potent”.

The record behind these values is US20130303576A1, “ENZYME INHIBITORS” (priority 2009, published 2013).
